Series [1] in a line: Exposed Polar Surface Area (EPSA). It is filed as physicochemical. The following applies: SFC on Chirex 3014 column; sample 1 mM DMSO stock; read-out: EPSA. In outline: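 Chirex 3014 column, 35 °C, 4 mL/min; CO2/MeOH + 20 mM NH4 formate, 5→60% modifier at 20%/min. UV/MS detection. EPSA (Å^2) from retention time vs 8-standard calibration line; duplicates; 1 mM DMSO stock injected undiluted.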

The target of series [2] is T1, IL-23R (Homo sapiens, UniProt Q5VWK5).
T1 construct: host or cells: HEK293
T1 sequence (Q5VWK5 24-629): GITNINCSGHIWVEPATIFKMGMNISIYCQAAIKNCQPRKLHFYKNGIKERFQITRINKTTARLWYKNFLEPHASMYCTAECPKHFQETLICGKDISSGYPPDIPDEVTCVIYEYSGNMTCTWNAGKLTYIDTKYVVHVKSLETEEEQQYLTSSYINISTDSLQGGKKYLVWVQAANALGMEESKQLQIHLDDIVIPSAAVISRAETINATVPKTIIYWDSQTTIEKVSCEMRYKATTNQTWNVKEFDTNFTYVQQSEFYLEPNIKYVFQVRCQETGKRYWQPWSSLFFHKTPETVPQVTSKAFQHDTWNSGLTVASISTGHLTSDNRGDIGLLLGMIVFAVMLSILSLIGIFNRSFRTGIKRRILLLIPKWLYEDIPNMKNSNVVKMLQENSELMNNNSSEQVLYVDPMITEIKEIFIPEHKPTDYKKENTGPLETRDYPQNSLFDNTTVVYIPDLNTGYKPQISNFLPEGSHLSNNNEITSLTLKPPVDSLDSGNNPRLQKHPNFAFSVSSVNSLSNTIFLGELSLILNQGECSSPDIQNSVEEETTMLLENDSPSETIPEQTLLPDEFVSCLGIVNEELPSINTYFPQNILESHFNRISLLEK
The series can be described thus: IL23R Reporter Assay. It is filed as cell-based. The following applies: HEK293 cells containing IL-23R, IL-12RP1 and STAT-inducible firefly luciferase reporter; 10 ng/mL IL-23 (EC90); 5 h at 37° C.; read-out: IL23R Reporter Assay. Background: Reporter assays use an easily measured gene product as a stand-in for the process of interest.

Starred links: 1 amine or outer side, 2 acyl side, 3 side chain; linkers in the order of their positions; H or OH if unused. Positions of bridges follow the written chain, without caps; N, C: chain ends. Non-standard residues stand in square brackets, D forms with d. Residues, ends and D or L forms follow the SMILES beside them. *: point of attachment. Trp(7-(3-AcNH-Ph)) = CC(=O)Nc1cccc(-c2cccc3c(C[C@H](N)C(=O)O)c[nH]c23)c1; X33 = C[N+](C)(C)CCCCc1cn(-c2ccc(C[C@H](N[*:1])C(=O)[*:2])cc2)nn1; X16 = C[N+](C)(C)Cc1cn(-c2ccc(C[C@H](N[*:1])C(=O)[*:2])cc2)nn1; Me3N+(CH2)2O(CH2)2O(CH2)2CO = C[N+](C)(C)CCOCCOCCC(=O)*; CH2CH2OCH2CH2OCH2CH2NMe3+ = C[N+](C)(C)CCOCCOCC*; Phe(4-N3) = [N-]=[N+]=Nc1ccc(C[C@H](N)C(=O)O)cc1; Trp(7-Me) = Cc1cccc2c(C[C@H](N)C(=O)O)c[nH]c12; X15 = CC(=O)N(C)C[C@H](N[*:1])C(=O)[*:2]; 2Nal = N[C@@H](Cc1ccc2ccccc2c1)C(=O)O; AEF = NCCOc1ccc(C[C@H](N)C(=O)O)cc1; 3Pal = N[C@@H](Cc1cccnc1)C(=O)O; Lys(Me) = CNCCCC[C@H](N)C(=O)O; X7 = COCCOCCOCCOCCOCCOCCC(=O)*; Pen = CC(C)(S)[C@H](N)C(=O)O; Thp = NC1(C(=O)O)CCOCC1; X17 = C[N+]1(CC*)CCOCC1; X3 = C[N+](C)(C)CCCCC*; Sar = CNCC(=O)O

Take `CC(=O)NCCCC[C@@H]1NC(=O)[C@H](Cc2c[nH]c3c(C)cccc23)NC(=O)[C@H]([C@@H](C)O)NC(=O)[C@H](CC(N)=O)NC(=O)[C@@H](NC(C)=O)C(C)(C)SSC(C)(C)[C@@H](C(=O)N[C@@H](Cc2ccc(N=[N+]=[N-])cc2)C(=O)N[C@@H](Cc2ccc3ccccc3c2)C(=O)NC2(C(=O)N[C@@H](CCCCNC(C)=O)C(=O)N[C@@H](CC(N)=O)C(=O)N[C@@H](Cc3cccnc3)C(=O)N(C)CC(N)=O)CCOCC2)NC1=O` [compound 417] (Ac-[Pen]NT[Trp(7-Me)]K(Ac)[Pen][Phe(4-N3)][2Nal][Thp]K(Ac)N[3Pal][Sar]-NH2; disulfide 1-6 (inferred)): the EPSA in series [1] is 167 A^2. Besides, the IC50 in series [2] amounted to 1.4 nM.
For `CC(=O)NCCCC[C@@H]1NC(=O)[C@H](Cc2c[nH]c3c(C)cccc23)NC(=O)[C@H]([C@@H](C)O)NC(=O)[C@H](CC(N)=O)NC(=O)[C@@H](NC(=O)CCOCCOCC[N+](C)(C)C)C(C)(C)SSC(C)(C)[C@@H](C(=O)N[C@@H](Cc2ccc(N=[N+]=[N-])cc2)C(=O)N[C@@H](Cc2ccc3ccccc3c2)C(=O)NC2(C(=O)N[C@@H](CCCCNC(C)=O)C(=O)N[C@@H](CC(N)=O)C(=O)N[C@@H](Cc3cccnc3)C(=O)N(C)CC(N)=O)CCOCC2)NC1=O` [compound 418, cPEG3aCO-Pen(3)-N-T-7MeW-K(Ac)-Pen(3)-F(4N3)-2Nal-THP-K(Ac)-N-3Pya-Sar-CONH2] ({Me3N+(CH2)2O(CH2)2O(CH2)2CO}-[Pen]NT[Trp(7-Me)]K(Ac)[Pen][Phe(4-N3)][2Nal][Thp]K(Ac)N[3Pal][Sar]-NH2; disulfide 1-6) the same measures were 166 A^2 and 1.2 nM.
For `CC(=O)N(C)CCCC[C@@H]1NC(=O)[C@H](Cc2c[nH]c3c(C)cccc23)NC(=O)[C@H]([C@@H](C)O)NC(=O)[C@H](CC(=O)N(C)C)NC(=O)[C@@H](NC(=O)CCOCCOCC[N+](C)(C)C)C(C)(C)SSC(C)(C)[C@@H](C(=O)N[C@@H](Cc2ccc(OCCOCCOCC[N+](C)(C)C)cc2)C(=O)N[C@@H](Cc2ccc3ccccc3c2)C(=O)NC2(C(=O)N[C@@H](CN(C)C(C)=O)C(=O)N[C@@H](CC(N)=O)C(=O)N[C@@H](Cc3cccnc3)C(=O)N(C)CC(=O)N(C)C)CCOCC2)NC1=O` [compound 419, cPEG3aCO-Pen(3)-N(N(Me)2)-T-7MeW-K(NMeAc)-Pen(3)-APEG3F-2Nal-THP-Dap(NMeAc)-N-3Pya-Sar-CON(Me)2] ({Me3N+(CH2)2O(CH2)2O(CH2)2CO}-[Pen]D(NMe2)T[Trp(7-Me)][Lys(Me)](Ac)[Pen]Y(CH2CH2OCH2CH2OCH2CH2NMe3+)[2Nal][Thp][X15]N[3Pal][Sar]-NMe2; disulfide 1-6) the same measures were 156 A^2 and 3 nM.
The corresponding values for `CC(=O)Nc1cccc(-c2cccc3c(C[C@@H]4NC(=O)[C@H]([C@@H](C)O)NC(=O)[C@H](CC(=O)N(C)C)NC(=O)[C@@H](NC(=O)CCOCCOCC[N+](C)(C)C)C(C)(C)SSC(C)(C)[C@@H](C(=O)N[C@@H](Cc5ccc(OCC[N+]6(C)CCOCC6)cc5)C(=O)N[C@@H](Cc5ccc6ccccc6c5)C(=O)NC5(C(=O)N[C@@H](CCCCN(C)C(C)=O)C(=O)N[C@@H](CC(N)=O)C(=O)N[C@@H](Cc6cccnc6)C(=O)N(C)CC(=O)N(C)C)CCOCC5)NC(=O)[C@H](CCCCN(C)C(C)=O)NC4=O)c[nH]c23)c1` [compound 421, cPEG3aCO-Pen(3)-N(N(me)2)-T-7(3NAcPh)W-K(NMeac)-Pen(3)-MMoEF-2Nal-THP-K(NMeAc)-N-3Pya-Sar-CON(Me)2] ({Me3N+(CH2)2O(CH2)2O(CH2)2CO}-[Pen]D(NMe2)T[Trp(7-(3-AcNH-Ph))][Lys(Me)](Ac)[Pen]Y(X17)[2Nal][Thp][Lys(Me)](Ac)N[3Pal][Sar]-NMe2; disulfide 1-6 (inferred)) are 168 A^2 and 1.2 nM.
Regarding `COCCOCCOCCOCCOCCOCCC(=O)N[C@H](CCCNC(=N)N)C(=O)N[C@@H]1C(=O)N[C@@H](CC(N)=O)C(=O)N[C@@H]([C@@H](C)O)C(=O)N[C@@H](Cc2c[nH]c3c(-c4cccc(NC(C)=O)c4)cccc23)C(=O)N[C@@H](CCCCNC(C)=O)C(=O)N[C@H](C(=O)N[C@@H](Cc2ccc(OCCN)cc2)C(=O)N[C@@H](Cc2ccc3ccccc3c2)C(=O)NC2(C(=O)N[C@@H](CCC(=O)O)C(=O)N[C@@H](CC(N)=O)C(=O)N[C@@H](Cc3cccnc3)C(=O)N(C)CC(N)=O)CCOCC2)C(C)(C)SSC1(C)C` [compound 422] (X7-[dR][Pen]NT[Trp(7-(3-AcNH-Ph))]K(Ac)[Pen][AEF][2Nal][Thp]EN[3Pal][Sar]-NH2; disulfide 2-7 (inferred)), in series [1], the EPSA amounted to 192 A^2. Also, the IC50 in series [2] worked out at 1.8 nM.
The corresponding values for `CC(=O)NCCCC[C@@H]1NC(=O)[C@H](Cc2c[nH]c3c(C)cccc23)NC(=O)[C@H]([C@@H](C)O)NC(=O)[C@H](CC(N)=O)NC(=O)[C@@H](NC(=O)CCOCCOCC[N+](C)(C)C)C(C)(C)SSC(C)(C)[C@@H](C(=O)N[C@@H](Cc2ccc(-n3cc(CCCC[N+](C)(C)C)nn3)cc2)C(=O)N[C@@H](Cc2ccc3ccccc3c2)C(=O)NC2(C(=O)N[C@@H](CCCCNC(C)=O)C(=O)N[C@@H](CC(N)=O)C(=O)N[C@@H](Cc3cccnc3)C(=O)N(C)CC(N)=O)CCOCC2)NC1=O` [compound 424, cPEG3aCO-Pen(3)-N-T-7MeW-K(Ac)-Pen(3)-F(4TzlTMA4)-2Nal-THP-K(Ac)-N-3Pya-Sar-CONH2] ({Me3N+(CH2)2O(CH2)2O(CH2)2CO}-[Pen]NT[Trp(7-Me)]K(Ac)[Pen][X33][2Nal][Thp]K(Ac)N[3Pal][Sar]-NH2; disulfide 1-6) are 165 A^2 and 2.6 nM.
For `CC(=O)NCCCC[C@@H]1NC(=O)[C@H](Cc2c[nH]c3c(C)cccc23)NC(=O)[C@H]([C@@H](C)O)NC(=O)[C@H](CC(N)=O)NC(=O)[C@@H](NC(C)=O)C(C)(C)SSC(C)(C)[C@@H](C(=O)N[C@@H](Cc2ccc(-n3cc(C[N+](C)(C)C)nn3)cc2)C(=O)N[C@@H](Cc2ccc3ccccc3c2)C(=O)NC2(C(=O)N[C@@H](CCCCNC(C)=O)C(=O)N[C@@H](CC(N)=O)C(=O)N[C@@H](Cc3cccnc3)C(=O)N(C)CC(N)=O)CCOCC2)NC1=O` [compound 426] (Ac-[Pen]NT[Trp(7-Me)]K(Ac)[Pen][X16][2Nal][Thp]K(Ac)N[3Pal][Sar]-NH2; disulfide 1-6 (inferred)) the same measures were 163 A^2 and 1.6 nM.
Consider `CC(=O)NCCCC[C@@H]1NC(=O)[C@H](Cc2c[nH]c3c(C)cccc23)NC(=O)[C@H]([C@@H](C)O)NC(=O)[C@H](CC(N)=O)NC(=O)[C@@H](NC(=O)CCOCCOCC[N+](C)(C)C)C(C)(C)SSC(C)(C)[C@@H](C(=O)N[C@@H](Cc2ccc(OCCCCC[N+](C)(C)C)cc2)C(=O)N[C@@H](Cc2ccc3ccccc3c2)C(=O)NC2(C(=O)N[C@@H](CCCCNC(C)=O)C(=O)N[C@@H](CC(N)=O)C(=O)N[C@@H](Cc3cccnc3)C(=O)N(C)CC(N)=O)CCOCC2)NC1=O` [compound 428, cPEG3aCO-Pen(3)-N-T-7MeW-K(Ac)-Pen(3)-TMAPF-2Nal-THP-K(Ac)-N-3Pya-Sar-CONH2] ({Me3N+(CH2)2O(CH2)2O(CH2)2CO}-[Pen]NT[Trp(7-Me)]K(Ac)[Pen]Y(X3)[2Nal][Thp]K(Ac)N[3Pal][Sar]-NH2; disulfide 1-6), for which the EPSA in series [1] worked out at 161 A^2. In series [2], the IC50 is 3.5 nM.

The record behind these values is patent US20260022143A1, “Cyclic Peptide Inhibitors of IL-23” (JANSSEN PHARMACEUTICA NV, priority 2022, published 2026).
